For the test, the system named is L1210 leukemia ip in BDF1 mice, survival T/C. Nature of the test: NCI In Vivo Anticancer Drug Screen. Data for tumor model L1210 Leukemia (intraperitoneal) in B6D2F1 (BDF1) mice. Conditions: higher = longer survival. The gist of the method: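 Tumor was transplanted into mice, which were then dosed with test compound or vehicle alone. Survival was recorded for each group, and the treated figure was expressed relative to the control figure.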

Where [1] appears, read: endpoint: mean survival time, dose: 50.0 mg/kg/injection, schedule: Q01DX001 (ip), vehicle: saline.
Setting [2] is: endpoint: mean survival time, dose: 100.0 mg/kg/injection, schedule: Q01DX001 (ip), vehicle: saline.
The mark [3] stands for this setting: endpoint: mean survival time, dose: 100.0 mg/kg/injection, schedule: Q04DX003 (ip), vehicle: Klucel (hydroxypropylcellulose) (HPC).
[4] abbreviates: endpoint: mean survival time, dose: 200.0 mg/kg/injection, schedule: Q04DX003 (ip), vehicle: Klucel (hydroxypropylcellulose) (HPC).
Where [5] appears, read: endpoint: mean survival time, dose: 100.0 mg/kg/injection, schedule: Q01DX009 (ip), vehicle: Klucel (hydroxypropylcellulose) (HPC).
Where [6] appears, read: endpoint: mean survival time, dose: 100.0 mg/kg/injection, schedule: Q01DX009 (ip), vehicle: saline.
The mark [7] stands for this setting: endpoint: mean survival time, dose: 200.0 mg/kg/injection, schedule: Q01DX009 (ip), vehicle: saline.
The mark [8] stands for this setting: endpoint: mean survival time, dose: 400.0 mg/kg/injection, schedule: Q01DX009 (ip), vehicle: saline.
Where [9] appears, read: endpoint: mean survival time, dose: 100.0 mg/kg/injection, schedule: Q04DX003 (ip), vehicle: saline.
The mark [10] stands for this setting: endpoint: mean survival time, dose: 200.0 mg/kg/injection, schedule: Q04DX003 (ip), vehicle: saline.
Where [11] appears, read: endpoint: mean survival time, dose: 400.0 mg/kg/injection, schedule: Q04DX003 (ip), vehicle: saline.

The structures appear in SMILES notation. Several values for one entry are separate records, joined by “and”; a condition that tells them apart may be missing. Equal values may be shown once. Inconclusive results and toxic doses are left out.

Regarding `CCCCCCCC(=O)N1CCCC1C(=O)NCCCCC(=O)O` (stereo unspecified), the T/C is 95 % of control (endpoint: mean survival time, dose: 25.0 mg/kg/injection, schedule: Q01DX001 (ip), vehicle: saline); 98 % of control under setting [1]; 95 % of control under setting [2].

`Cc1cc(N)c(S)cc1C`: the T/C is 108 % of control (endpoint: mean survival time, dose: 12.5 mg/kg/injection, schedule: Q04DX002 (ip), vehicle: saline with Tween-80); 90 % of control (endpoint: mean survival time, dose: 25.0 mg/kg/injection, schedule: Q04DX002 (ip), vehicle: saline with Tween-80); 94 % of control under setting [1]; 101 % of control (endpoint: mean survival time, dose: 50.0 mg/kg/injection, schedule: Q04DX002 (ip), vehicle: saline with Tween-80); 91 % of control under setting [2].

For the compound `C[C@H](CCC[C@H](C)OS(=O)(=O)c1ccccc1)OS(=O)(=O)c1ccccc1`, the T/C is 104 % of control and 112 % of control (endpoint: mean survival time, dose: 25.0 mg/kg/injection, schedule: Q01DX009 (ip), vehicle: saline with Tween-80); 107 % of control and 112 % of control (2×) (endpoint: mean survival time, dose: 50.0 mg/kg/injection, schedule: Q01DX009 (ip), vehicle: saline with Tween-80); 109 % of control (endpoint: mean survival time, dose: 100.0 mg/kg/injection, schedule: Q01DX009 (ip), vehicle: saline with Tween-80); 112 % of control (2×) and 117 % of control (endpoint: mean survival time, dose: 200.0 mg/kg/injection, schedule: Q01DX009 (ip), vehicle: saline with Tween-80).

For the compound `CCCCCCCCCCCCCCCc1cc(=O)n(-c2ccc(NC(=O)/C=C/C(=O)O)cc2)n1C`, the T/C runs as follows: under setting [3], 98 % of control; under setting [4], 94 % of control.

Regarding `O=C(NC(CSC(=O)OCc1ccccc1)C(=O)Oc1ccc([N+](=O)[O-])cc1)OCc1ccccc1` (stereo unspecified), the T/C runs as follows: under setting [5], 104 % of control; under setting [3], 97 % of control; (endpoint: mean survival time, dose: 200.0 mg/kg/injection, schedule: Q01DX009 (ip), vehicle: Klucel (hydroxypropylcellulose) (HPC)) 114 % of control; under setting [4], 100 % of control; (endpoint: mean survival time, dose: 400.0 mg/kg/injection, schedule: Q01DX009 (ip), vehicle: Klucel (hydroxypropylcellulose) (HPC)) 109 % of control; (endpoint: mean survival time, dose: 400.0 mg/kg/injection, schedule: Q04DX003 (ip), vehicle: Klucel (hydroxypropylcellulose) (HPC)) 103 % of control.

As to `C/C(=N\N=C(N)N)c1ccc(NC(=O)Nc2ccc(/C(C)=N/N=C(N)N)cc2)cc1`, the T/C is 109 % of control and 124 % of control (endpoint: mean survival time, dose: 10.0 mg/kg/injection, schedule: Q01DX009 (ip), vehicle: saline); 187 % of control (endpoint: mean survival time, dose: 18.0 mg/kg/injection, schedule: Q01DX009 (ip), vehicle: water); 157 % of control (endpoint: mean survival time, dose: 20.0 mg/kg/injection, schedule: Q01DX005 (ip), vehicle: saline); 152 % of control (endpoint: mean survival time, dose: 30.0 mg/kg/injection, schedule: Q01DX009 (ip), vehicle: carboxymethylcellulose (CMC)); 188 % of control (endpoint: mean survival time, dose: 30.0 mg/kg/injection, schedule: Q01DX009 (ip), vehicle: water); 150 % of control (endpoint: mean survival time, dose: 40.0 mg/kg/injection, schedule: Q01DX005 (ip), vehicle: saline). Moreover, the T/C is 174 % of control (endpoint: mean survival time, dose: 40.0 mg/kg/injection, schedule: Q01DX009 (ip), vehicle: water); 189 % of control (endpoint: mean survival time, dose: 50.0 mg/kg/injection, schedule: Q01DX009 (ip), vehicle: carboxymethylcellulose (CMC)); 259 % of control (endpoint: mean survival time, dose: 50.0 mg/kg/injection, schedule: Q01DX009 (ip), vehicle: water); 167 % of control (endpoint: mean survival time, dose: 65.0 mg/kg/injection, schedule: Q01DX009 (ip), vehicle: water); 177 % of control (endpoint: mean survival time, dose: 80.0 mg/kg/injection, schedule: Q01DX005 (ip), vehicle: saline); 257 % of control (endpoint: mean survival time, dose: 83.3 mg/kg/injection, schedule: Q01DX009 (ip), vehicle: carboxymethylcellulose (CMC)). The T/C was 243 % of control (endpoint: mean survival time, dose: 83.3 mg/kg/injection, schedule: Q01DX009 (ip), vehicle: water); 172 % of control (endpoint: mean survival time, dose: 108.0 mg/kg/injection, schedule: Q01DX015 (ip), vehicle: saline); 226 % of control (endpoint: mean survival time, dose: 160.0 mg/kg/injection, schedule: Q01DX005 (ip), vehicle: saline); 207 % of control (endpoint: mean survival time, dose: 180.0 mg/kg/injection, schedule: Q01DX015 (ip), vehicle: saline); 157 % of control (endpoint: mean survival time, dose: 400.0 mg/kg/injection, schedule: Q01DX001 (ip), vehicle: other); 188 % of control (endpoint: mean survival time, dose: 600.0 mg/kg/injection, schedule: Q01DX001 (ip), vehicle: other). The T/C was 162 % of control (endpoint: median survival time, dose: 50.0 mg/kg/injection, schedule: Q01DX009 (ip), vehicle: saline); 228 % of control (endpoint: median survival time, dose: 60.0 mg/kg/injection, schedule: Q03HX024 (ip), vehicle: water); 166 % of control (endpoint: median survival time, dose: 75.0 mg/kg/injection, schedule: Q03HX024 (ip), vehicle: water); 284 % of control (endpoint: median survival time, dose: 90.0 mg/kg/injection, schedule: Q03HX024 (ip), vehicle: water); 215 % of control and 262 % of control (endpoint: median survival time, dose: 100.0 mg/kg/injection, schedule: Q01DX009 (ip), vehicle: saline); 168 % of control (endpoint: median survival time, dose: 105.0 mg/kg/injection, schedule: Q03HX024 (ip), vehicle: water). For the same compound, the T/C was 303 % of control (endpoint: median survival time, dose: 120.0 mg/kg/injection, schedule: Q03HX024 (ip), vehicle: water); 260 % of control and 312 % of control (endpoint: median survival time, dose: 200.0 mg/kg/injection, schedule: Q01DX009 (ip), vehicle: saline).

As for `CCOC(=O)NC1C2CC3C(C2)C31` (stereo unspecified), the T/C (endpoint: mean survival time, dose: 50.0 mg/kg/injection, schedule: Q01DX001 (ip), vehicle: carboxymethylcellulose (CMC)) was 107 % of control; the T/C (endpoint: mean survival time, dose: 100.0 mg/kg/injection, schedule: Q01DX001 (ip), vehicle: carboxymethylcellulose (CMC)) was 103 % of control; the T/C (endpoint: mean survival time, dose: 200.0 mg/kg/injection, schedule: Q01DX001 (ip), vehicle: carboxymethylcellulose (CMC)) is 101 % of control; the T/C (endpoint: mean survival time, dose: 400.0 mg/kg/injection, schedule: Q01DX001 (ip), vehicle: carboxymethylcellulose (CMC)) is 109 % of control.

On to `CN(C)CCC(O)(Cc1ccccc1)c1ccccc1` (stereo unspecified), for which the T/C is, setting by setting: (endpoint: mean survival time, dose: 50.0 mg/kg/injection, schedule: Q01DX009 (ip), vehicle: Klucel (hydroxypropylcellulose) (HPC)) 95 % of control; under setting [5], 101 % of control; under setting [3], 95 % of control; under setting [4], 101 % of control.

Take `CC(=O)NCc1cccc[n+]1[O-]`: the T/C (endpoint: mean survival time, dose: 25.0 mg/kg/injection, schedule: Q04DX002 (ip), vehicle: saline) is 110 % of control; the T/C (endpoint: mean survival time, dose: 50.0 mg/kg/injection, schedule: Q04DX002 (ip), vehicle: saline) was 105 % of control; the T/C (endpoint: mean survival time, dose: 100.0 mg/kg/injection, schedule: Q04DX002 (ip), vehicle: saline) is 101 % of control and 105 % of control.

As to `O=C1OC(/C=C/c2ccccc2)=NC/1=C\c1ccc(Cl)cc1`, the T/C runs as follows: under setting [6], 105 % of control; under setting [7], 105 % of control; under setting [8], 94 % of control.

In the case of `CCn1c(O)c(C=N)c(=O)n(CC)c1=O`, the T/C was 95 % of control under setting [6], 106 % of control under setting [9], 93 % of control under setting [10] and 113 % of control under setting [11].

`Cc1nccn1-c1ccc(N=Cc2ccc(N(CCCl)CCCl)cc2)cc1`: the T/C runs as follows: (endpoint: mean survival time, dose: 43.8 mg/kg/injection, schedule: Q04DX002 (ip), vehicle: Klucel (hydroxypropylcellulose) (HPC)) 106 % of control; (endpoint: mean survival time, dose: 87.5 mg/kg/injection, schedule: Q04DX002 (ip), vehicle: Klucel (hydroxypropylcellulose) (HPC)) 106 % of control; (endpoint: mean survival time, dose: 175.0 mg/kg/injection, schedule: Q04DX002 (ip), vehicle: Klucel (hydroxypropylcellulose) (HPC)) 109 % of control.

`CCOC(=O)C(C)P(=O)(OCC)OCC` (stereo unspecified): the T/C reads like this: under setting [6], 112 % of control; under setting [7], 104 % of control; under setting [8], 109 % of control.

In the case of `CC(=O)N1CCC(CC[P+](c2ccccc2)(c2ccccc2)c2ccccc2)CC1`, the T/C was 101 % of control (endpoint: mean survival time, dose: 12.5 mg/kg/injection, schedule: Q04DX003 (ip), vehicle: saline); 96 % of control (endpoint: mean survival time, dose: 25.0 mg/kg/injection, schedule: Q04DX003 (ip), vehicle: saline); 93 % of control (endpoint: mean survival time, dose: 50.0 mg/kg/injection, schedule: Q04DX003 (ip), vehicle: saline).

As for `O=C(CBr)N=c1cc(-c2ccc(Cl)cc2)ss1`, the T/C is, setting by setting: under setting [9], 95 % of control; under setting [10], 91 % of control; under setting [11], 101 % of control.

These data come from PubChem BioAssay AID248 (DTP/NCI, 2004).
